Measured values reported in ChEMBL document CHEMBL4507286 (2021).

Key:
[1] = biological target: Serine/threonine-protein kinase 38 (Homo sapiens) (UniProt Q15208)
[2] = biological target: Activin receptor type-1-like (Homo sapiens) (UniProt P37023)
[3] = biological target: Dual specificity protein kinase CLK4 (Homo sapiens, UniProt Q9HAZ1)
[4] = test system: Tyrosine-protein kinase ABL1 (Homo sapiens), P00519 [M351T]
[5] = biological target: Tyrosine-protein kinase TXK (Homo sapiens) (UniProt P42681)
[6] = biological target: Serine/threonine-protein kinase TAO1 (Homo sapiens) (UniProt Q7L7X3)
[7] = test system: Mast/stem cell growth factor receptor Kit (Homo sapiens), P10721 [V559D]
[8] = biological target: Cyclin-dependent kinase 8 (Homo sapiens) (UniProt P49336)
[9] = biological target: Serine/threonine-protein kinase SIK1 (Homo sapiens) (UniProt P57059)
[10] = biological target: Casein kinase I isoform delta (Homo sapiens) (UniProt P48730)
[11] = test system: Receptor-type tyrosine-protein kinase FLT3 (Homo sapiens), P36888 [R834Q]
[12] = biological target: G protein-coupled receptor kinase 4 (Homo sapiens) (UniProt P32298)
[13] = biological target: Fibroblast growth factor receptor 3 (Homo sapiens) (UniProt P22607)
[14] = biological target: Vascular endothelial growth factor receptor 3 (Homo sapiens) (UniProt P35916)
[15] = biological target: Non-receptor tyrosine-protein kinase TNK1 (Homo sapiens) (UniProt Q13470)
[16] = biological target: Interferon-induced, double-stranded RNA-activated protein kinase (Homo sapiens) (UniProt P19525)
[17] = biological target: Mitogen-activated protein kinase kinase kinase kinase 2 (Homo sapiens) (UniProt Q12851)
[18] = biological target: Bone morphogenetic protein receptor type-1A (Homo sapiens) (UniProt P36894)
[19] = biological target: Wee1-like protein kinase 2 (Homo sapiens) (UniProt P0C1S8)
[20] = biological target: Cyclin-dependent kinase 7 (Homo sapiens, UniProt P50613)
[21] = test system: Receptor-type tyrosine-protein kinase FLT3 (Homo sapiens), P36888 [UNDEFINED MUTATION]
[22] = biological target: TGF-beta receptor type-2 (Homo sapiens) (UniProt P37173)
[23] = biological target: Cyclin-dependent kinase-like 5 (Homo sapiens) (UniProt O76039)
[24] = biological target: Ephrin type-B receptor 4 (Homo sapiens) (UniProt P54760)
[25] = biological target: Activin receptor type-1B (Homo sapiens) (UniProt P36896)
[26] = biological target: Mitogen-activated protein kinase kinase kinase kinase 3 (Homo sapiens) (UniProt Q8IVH8)
[27] = test system: Receptor-type tyrosine-protein kinase FLT3 (Homo sapiens), P36888 [UNDEFINED MUTATION]; remark: listed apart in the source
[28] = biological target: Cyclin-dependent kinase 4 (Homo sapiens) (UniProt P11802)
[29] = biological target: Serine/threonine-protein kinase D1 (Homo sapiens) (UniProt Q15139)
[30] = biological target: Mitogen-activated protein kinase kinase kinase 15 (Homo sapiens) (UniProt Q6ZN16)
[31] = biological target: Serine/threonine-protein kinase Nek7 (Homo sapiens) (UniProt Q8TDX7)
[32] = biological target: Serine/threonine-protein kinase WNK2 (Homo sapiens) (UniProt Q9Y3S1)
[33] = biological target: Glycogen synthase kinase-3 beta (Homo sapiens, UniProt P49841)
[34] = biological target: Ribosomal protein S6 kinase alpha-6 (Homo sapiens) (UniProt Q9UK32)
[35] = biological target: Mitogen-activated protein kinase 1 (Homo sapiens, UniProt P28482)
[36] = biological target: Serine/threonine-protein kinase Chk1 (Homo sapiens) (UniProt O14757)
[37] = biological target: Homeodomain-interacting protein kinase 2 (Homo sapiens) (UniProt Q9H2X6)
[38] = biological target: Serine/threonine-protein kinase Nek2 (Homo sapiens) (UniProt P51955)
[39] = biological target: Phosphatidylinositol 3-kinase C2 domain-containing subunit gamma (Homo sapiens) (UniProt O75747)
[40] = biological target: RAF proto-oncogene serine/threonine-protein kinase (Homo sapiens) (UniProt P04049)
[41] = biological target: Serine/threonine-protein kinase VRK2 (Homo sapiens) (UniProt Q86Y07)
[42] = biological target: Ephrin type-A receptor 8 (Homo sapiens) (UniProt P29322)
[43] = biological target: Serine/threonine-protein kinase PLK3 (Homo sapiens) (UniProt Q9H4B4)
[44] = biological target: Glycogen synthase kinase-3 alpha (Homo sapiens, UniProt P49840)
[45] = biological target: Hormonally up-regulated neu tumor-associated kinase (Homo sapiens) (UniProt P57058)
[46] = Compound concentration 1000.0 nM
[47] = Compound concentration 100.0 nM

Measured: residual activity

Bone morphogenetic protein receptor type-1A (Homo sapiens), sequence (P36894 whole entry): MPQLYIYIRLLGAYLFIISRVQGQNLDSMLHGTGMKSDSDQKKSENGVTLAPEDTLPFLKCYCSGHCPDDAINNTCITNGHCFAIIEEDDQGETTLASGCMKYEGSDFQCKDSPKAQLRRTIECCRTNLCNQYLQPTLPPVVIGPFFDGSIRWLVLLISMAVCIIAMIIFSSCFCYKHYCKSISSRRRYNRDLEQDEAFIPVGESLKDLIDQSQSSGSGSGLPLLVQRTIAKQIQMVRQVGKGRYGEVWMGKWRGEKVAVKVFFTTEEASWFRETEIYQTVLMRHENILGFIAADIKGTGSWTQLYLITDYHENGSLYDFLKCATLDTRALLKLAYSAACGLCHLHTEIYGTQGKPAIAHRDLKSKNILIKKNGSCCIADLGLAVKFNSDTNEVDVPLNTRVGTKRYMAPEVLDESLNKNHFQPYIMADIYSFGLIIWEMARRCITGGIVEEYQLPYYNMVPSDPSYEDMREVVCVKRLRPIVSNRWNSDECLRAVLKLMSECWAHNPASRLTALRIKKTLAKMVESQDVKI
Fibroblast growth factor receptor 3 (Homo sapiens), sequence (P22607 23-806 limits assumed): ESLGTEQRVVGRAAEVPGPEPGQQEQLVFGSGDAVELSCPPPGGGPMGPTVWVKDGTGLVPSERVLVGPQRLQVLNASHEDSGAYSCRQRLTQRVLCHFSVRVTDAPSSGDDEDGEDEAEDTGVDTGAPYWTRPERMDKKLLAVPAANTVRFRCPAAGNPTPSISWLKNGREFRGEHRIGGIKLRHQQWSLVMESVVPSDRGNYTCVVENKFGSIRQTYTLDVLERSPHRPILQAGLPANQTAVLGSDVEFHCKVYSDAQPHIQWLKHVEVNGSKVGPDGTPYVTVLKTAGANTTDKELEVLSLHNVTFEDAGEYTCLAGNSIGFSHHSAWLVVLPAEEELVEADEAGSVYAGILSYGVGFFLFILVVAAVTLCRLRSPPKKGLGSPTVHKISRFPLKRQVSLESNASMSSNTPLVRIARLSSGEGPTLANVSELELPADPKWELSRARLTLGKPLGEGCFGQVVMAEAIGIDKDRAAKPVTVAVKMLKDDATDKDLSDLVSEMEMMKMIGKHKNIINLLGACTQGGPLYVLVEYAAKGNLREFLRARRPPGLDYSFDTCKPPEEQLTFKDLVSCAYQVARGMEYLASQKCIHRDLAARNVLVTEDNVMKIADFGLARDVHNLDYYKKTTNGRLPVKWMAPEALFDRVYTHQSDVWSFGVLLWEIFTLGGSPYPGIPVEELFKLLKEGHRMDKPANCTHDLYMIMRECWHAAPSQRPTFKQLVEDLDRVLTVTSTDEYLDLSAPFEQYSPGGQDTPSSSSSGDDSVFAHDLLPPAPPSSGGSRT
Mitogen-activated protein kinase kinase kinase kinase 3 (Homo sapiens), sequence (Q8IVH8 whole entry): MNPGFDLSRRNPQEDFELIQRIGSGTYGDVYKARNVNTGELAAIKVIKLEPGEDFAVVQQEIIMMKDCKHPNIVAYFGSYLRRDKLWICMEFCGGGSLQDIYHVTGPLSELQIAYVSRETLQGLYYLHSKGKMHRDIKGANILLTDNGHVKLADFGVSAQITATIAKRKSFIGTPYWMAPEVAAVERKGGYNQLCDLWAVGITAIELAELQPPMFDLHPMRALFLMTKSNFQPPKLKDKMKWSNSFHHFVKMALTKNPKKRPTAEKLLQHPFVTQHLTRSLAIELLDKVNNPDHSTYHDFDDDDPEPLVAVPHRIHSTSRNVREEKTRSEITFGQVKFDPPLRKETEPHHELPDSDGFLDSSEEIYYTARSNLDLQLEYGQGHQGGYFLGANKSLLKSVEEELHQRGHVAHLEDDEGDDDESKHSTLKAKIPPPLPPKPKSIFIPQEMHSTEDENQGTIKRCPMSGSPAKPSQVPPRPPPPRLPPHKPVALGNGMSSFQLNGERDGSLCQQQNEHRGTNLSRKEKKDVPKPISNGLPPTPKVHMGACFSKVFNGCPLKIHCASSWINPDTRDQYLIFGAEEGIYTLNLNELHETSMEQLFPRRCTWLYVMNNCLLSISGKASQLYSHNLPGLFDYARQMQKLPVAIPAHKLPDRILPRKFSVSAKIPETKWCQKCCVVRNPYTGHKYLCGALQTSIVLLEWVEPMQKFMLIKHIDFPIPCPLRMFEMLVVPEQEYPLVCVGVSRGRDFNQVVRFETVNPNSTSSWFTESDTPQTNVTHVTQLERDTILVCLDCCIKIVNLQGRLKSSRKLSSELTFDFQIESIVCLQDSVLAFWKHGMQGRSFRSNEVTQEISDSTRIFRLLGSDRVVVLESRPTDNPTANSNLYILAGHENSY
Serine/threonine-protein kinase Nek7 (Homo sapiens), sequence (Q8TDX7 whole entry, looked up): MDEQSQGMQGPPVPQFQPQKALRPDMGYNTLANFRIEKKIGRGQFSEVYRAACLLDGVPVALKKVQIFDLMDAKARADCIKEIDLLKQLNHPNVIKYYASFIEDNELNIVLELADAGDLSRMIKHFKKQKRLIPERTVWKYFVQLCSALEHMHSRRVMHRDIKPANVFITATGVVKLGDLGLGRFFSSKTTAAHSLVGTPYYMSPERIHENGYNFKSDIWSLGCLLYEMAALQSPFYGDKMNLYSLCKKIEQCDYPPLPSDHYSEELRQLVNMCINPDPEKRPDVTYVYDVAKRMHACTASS
Serine/threonine-protein kinase 38 (Homo sapiens), sequence (Q15208 2-465 limits assumed): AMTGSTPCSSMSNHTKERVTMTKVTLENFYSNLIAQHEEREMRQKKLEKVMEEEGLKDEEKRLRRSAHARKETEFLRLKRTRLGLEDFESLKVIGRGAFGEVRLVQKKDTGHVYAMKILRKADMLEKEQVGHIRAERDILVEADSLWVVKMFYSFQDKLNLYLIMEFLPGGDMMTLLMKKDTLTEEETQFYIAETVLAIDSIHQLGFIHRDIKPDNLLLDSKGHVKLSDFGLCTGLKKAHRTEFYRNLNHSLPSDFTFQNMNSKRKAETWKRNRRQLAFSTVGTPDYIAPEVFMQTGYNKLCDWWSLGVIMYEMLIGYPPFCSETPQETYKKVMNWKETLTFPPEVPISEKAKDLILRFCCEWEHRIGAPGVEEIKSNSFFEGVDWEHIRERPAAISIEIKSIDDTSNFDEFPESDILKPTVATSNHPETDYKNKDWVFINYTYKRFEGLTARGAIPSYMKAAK
Activin receptor type-1B (Homo sapiens), sequence (P36896 whole entry): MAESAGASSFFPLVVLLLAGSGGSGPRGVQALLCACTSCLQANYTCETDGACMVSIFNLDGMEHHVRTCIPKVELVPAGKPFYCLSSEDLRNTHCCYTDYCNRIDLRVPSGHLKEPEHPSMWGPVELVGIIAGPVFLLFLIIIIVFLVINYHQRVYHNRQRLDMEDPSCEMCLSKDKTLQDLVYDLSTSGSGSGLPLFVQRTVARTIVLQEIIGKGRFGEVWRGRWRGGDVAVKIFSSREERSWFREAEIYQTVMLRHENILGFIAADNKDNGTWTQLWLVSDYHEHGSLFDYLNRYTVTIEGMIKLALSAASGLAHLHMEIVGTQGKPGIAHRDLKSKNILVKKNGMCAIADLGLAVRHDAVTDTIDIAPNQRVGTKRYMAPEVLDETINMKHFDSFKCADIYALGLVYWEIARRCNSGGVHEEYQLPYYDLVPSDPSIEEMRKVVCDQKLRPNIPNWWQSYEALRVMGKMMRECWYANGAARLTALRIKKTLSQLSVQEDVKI
Mitogen-activated protein kinase kinase kinase 15 (Homo sapiens), sequence (Q6ZN16 whole entry): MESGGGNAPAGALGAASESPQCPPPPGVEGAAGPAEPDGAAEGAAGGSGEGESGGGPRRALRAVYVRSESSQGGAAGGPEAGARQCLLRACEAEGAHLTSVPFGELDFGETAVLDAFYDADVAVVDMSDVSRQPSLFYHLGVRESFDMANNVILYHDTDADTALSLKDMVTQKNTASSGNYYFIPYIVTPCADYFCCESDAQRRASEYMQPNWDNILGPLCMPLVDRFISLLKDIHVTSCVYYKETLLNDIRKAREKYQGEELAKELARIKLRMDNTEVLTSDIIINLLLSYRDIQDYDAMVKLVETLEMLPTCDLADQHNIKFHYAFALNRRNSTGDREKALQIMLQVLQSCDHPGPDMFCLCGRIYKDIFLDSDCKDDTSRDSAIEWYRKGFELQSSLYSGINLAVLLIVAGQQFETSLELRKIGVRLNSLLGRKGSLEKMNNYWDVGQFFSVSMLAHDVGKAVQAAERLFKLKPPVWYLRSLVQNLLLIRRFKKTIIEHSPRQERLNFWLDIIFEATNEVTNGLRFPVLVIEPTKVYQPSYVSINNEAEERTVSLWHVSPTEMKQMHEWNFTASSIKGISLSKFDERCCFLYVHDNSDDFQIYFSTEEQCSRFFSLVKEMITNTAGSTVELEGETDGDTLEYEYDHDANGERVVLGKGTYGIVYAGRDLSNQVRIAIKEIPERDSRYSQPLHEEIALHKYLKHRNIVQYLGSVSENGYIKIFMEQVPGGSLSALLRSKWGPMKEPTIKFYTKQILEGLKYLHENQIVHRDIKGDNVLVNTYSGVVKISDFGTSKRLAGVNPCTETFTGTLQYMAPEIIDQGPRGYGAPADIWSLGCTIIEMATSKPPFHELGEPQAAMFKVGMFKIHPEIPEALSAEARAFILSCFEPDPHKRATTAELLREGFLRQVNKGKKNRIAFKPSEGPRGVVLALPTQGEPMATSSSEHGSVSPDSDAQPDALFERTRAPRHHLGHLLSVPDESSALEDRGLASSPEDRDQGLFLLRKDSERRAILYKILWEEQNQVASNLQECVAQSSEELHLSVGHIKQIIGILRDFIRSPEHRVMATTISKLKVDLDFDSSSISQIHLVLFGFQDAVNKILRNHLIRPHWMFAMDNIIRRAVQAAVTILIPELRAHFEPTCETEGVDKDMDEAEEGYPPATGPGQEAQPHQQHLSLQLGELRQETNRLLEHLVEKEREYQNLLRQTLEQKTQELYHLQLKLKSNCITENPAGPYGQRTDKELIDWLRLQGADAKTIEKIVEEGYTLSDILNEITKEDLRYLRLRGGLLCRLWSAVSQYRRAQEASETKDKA

C[C@H](NC(=O)Nc1cc2[nH]ncc2c(CO)n1)c1ccccn1 [ERKi-NC]
inactive: [1]; [46] 81.4% | [2]; [46] 92.3% | [3]; [46] 78.8% | [4]; [46] 89.8% | [5]; [46] 51% | [6]; [46] 100% | [7]; [46] 100% | [8]; [46] 100% | [9]; [46] 100% | [10]; [46] 100% | [11]; [46] 94.5% | [12]; [46] 85.2% | [13]; [46] 81.8% | [14]; [46] 100% | [15]; [46] 87.8% | [16]; [46] 71.8% | [17]; [46] 100% | [18]; [46] 74.6% | [19]; [46] 100% | [20]; [46] 100% | [21]; [46] 73.5% | [22]; [46] 76.1% | [23]; [46] 100% | [24]; [46] 100% | [25]; [46] 76.1% | [26]; [46] 100% | [27]; [46] 100% | [28]; [46] 100% | [29]; [46] 89.4% | [30]; [46] 100% | [31]; [46] 98% | [32]; [46] 90.7% | [33]; [46] 100% | [34]; [46] 100% | [35]; [46] 50% | [36]; [46] 100% | [37]; [46] 83.9% | [38]; [46] 96.9% | [39]; [46] 93.1% | [40]; [46] 90.2% | [41]; [46] 100% | [42]; [46] 100% | [43]; [46] 68.7% | [44]; [46] 100% | [45]; [46] 100%

C[C@@H](NC(=O)Nc1cc2[nH]ncc2c(CO)n1)c1ccccc1 [ERKi]
inactive: [1]; [47] 75.2% | [2]; [47] 90.9% | [3]; [47] 66.6% | [4]; [47] 100% | [5]; [47] 100% | [6]; [47] 66.4% | [7]; [47] 88.3% | [8]; [47] 76.1% | [9]; [47] 100% | [10]; [47] 84.7% | [11]; [47] 56.8% | [12]; [47] 100% | [13]; [47] 85.4% | [14]; [47] 100% | [15]; [47] 98.1% | [16]; [47] 78.1% | [17]; [47] 78.3% | [18]; [47] 100% | [19]; [47] 77.6% | [20]; [47] 73.6% | [21]; [47] 100% | [23]; [47] 88.3% | [24]; [47] 87.6% | [25]; [47] 100% | [26]; [47] 84.5% | [27]; [47] 100% | [28]; [47] 83.1% | [29]; [47] 100% | [30]; [47] 100% | [31]; [47] 76.9% | [32]; [47] 100% | [33]; [47] 100% | [34]; [47] 83.4% | [36]; [47] 97.1% | [37]; [47] 85.6% | [38]; [47] 100% | [39]; [47] 68.3% | [40]; [47] 100% | [41]; [47] 76.3% | [42]; [47] 89.8% | [43]; [47] 89% | [44]; [47] 88% | [45]; [47] 100%
active: [22]; [47] 40.8% | [35]; [47] 1%
